Holding throughout (format): biochemical, Streptomyces sp. AC 8205
Assay [1] deals with ω-carboxyalcohol oxidase. Kind of assay: Effects of reagents (detergents and metal ions) on enzyme activity. To be noted: None = 100. The method, then:
(§1) An enzyme solution (25 μl) was added to the above mixture (0.5 ml), followed by incubation at 37° C. for exactly 10 mins., whereupon sodium dodecyl sulfate (SDS) (0.5 ml) was added thereto, then absorbance at 545 nm was measured. One unit of enzyme is defined by the activity which generates 1 μmole of hydrogen peroxide per minute.
The effects of various detergent and metal ions are shown in Table 4, in which the listed reagents show no significant effect on the enzyme. Activities of the enzyme are measured by adding each listed detergent and metal ion to the assay method described above at item 1.

Assay [2] relates to ω-carboxyalcohol oxidase. Kind of assay: Substrate specificity of ω-carboxyalcohol oxidase (peroxidase/4-aminoantipyrine H2O2 assay). More on the design: Relative Activity (%): concentration or dose not given beside the values. The note with it: for Relative Activity (%): substrate in place of 12-hydroxydodecanoic acid, activity on 12-hydroxydodecanoic acid defined as 100, pH 7.5, 37° C., 10 mins.; for Substrate specificity: statement in words, from Table 2. The protocol:
as §1
Assay method: In the assay method illustrated at item 1. hereinabove, 12-hydroxydodecanoic acid was replaced by the substrates indicated in Table 2, and the resulting relative activities were produced, defining the activity on 12-hydroxydodecanoic acid as 100.

Assay [3] deals with ω-carboxyalcohol oxidase. Kind of assay: Utilization of coenzyme (absorbance at 340 nm). To be noted: for A340nm: 37° C., one unit of enzyme, 12-hydroxydodecanoic acid; for Utilization of coenzyme: statement in words. The protocol: One unit of enzyme is added to the reaction mixture (2.0 ml) hereinabove and the absorbance at 340 nm and 37° C. is continuously measured.

On to `[Ca+2].[Cl-].[Cl-]` [CaCl], for which the “Relative Activity (%)” value in assay [1] (reagent 1 mM) is 97.0%.

In the case of `C[C@H](CCC(=O)O)[C@H]1CC[C@H]2[C@@H]3[C@H](O)C[C@@H]4C[C@H](O)CC[C@]4(C)[C@H]3C[C@H](O)[C@]12C` [Cholate], the “Relative Activity (%)” value in assay [1] (reagent 10 mM) was determined as 94.9%.

On to `C[C@H](CCC(=O)O)[C@H]1CC[C@H]2[C@@H]3CC[C@@H]4C[C@H](O)CC[C@]4(C)[C@H]3C[C@H](O)[C@]12C` [Deoxycholate], for which the “Relative Activity (%)” value in assay [1] (reagent 10 mM) turned out to be 94.9%.

On to `CCCO` [H3 C--(CH2)2 --OH], for which the “Relative Activity (%)” value in assay [2] was found to be 6.6%.

Take `CCCCO` [H3 C--(CH2)3 --OH]: the “Relative Activity (%)” value in assay [2] is listed as 76.1%.

Consider `CCCCCCO` [H3 C--(CH2)5 --OH], for which, in assay [2], the Substrate specificity entry is “has substrate specificity” and the “Relative Activity (%)” value was determined as 88.5%.

Turning to `CCCCCCCCC=CCCCCCCCCO` [H3 C--(CH2)7 --CH=CH--(CH2)8 --OH], the “Relative Activity (%)” value in assay [2] was 59.1%.

With `CCCCCCCCO` [H3 C--(CH2)7 --OH], in assay [2], the Substrate specificity result is “has substrate specificity” and the “Relative Activity (%)” value was determined as 88.5%.

Consider `CCCCCCCCCCO` [H3 C--(CH2)9 --OH], for which, in assay [2], the Substrate specificity result is recorded as “has substrate specificity” and the “Relative Activity (%)” value was determined as 87.6%.

`CCCCCCCCCCCCO` [H3 C--(CH2)11 --OH]: in assay [2], the Substrate specificity entry is listed as “has substrate specificity” and the “Relative Activity (%)” value is recorded as 86.1%.

With `CCCCCCCCCCCCCCO` [H3 C--(CH2)13 --OH], the “Relative Activity (%)” value in assay [2] is given as 76.1%.

Take `CCCCCCCCCCCCCCCCO` [H3 C--(CH2)15 --OH]: in assay [2], the “Relative Activity (%)” value is reported as 60.2%.

With `CCO` [H3 C--CH2 --OH, ethanol], in assay [2], the Substrate specificity result was “no specificity” and the “Relative Activity (%)” value is listed as 0%.

As for `CO` [H3 C--OH, methanol], in assay [2], the Substrate specificity entry is recorded as “no specificity” and the “Relative Activity (%)” value stood at 0%.

As to `O=C(O)CCCCCCCCCCCO` [HO2 C--(CH2)11 --OH, 12-hydroxydodecanoic acid], in assay [2], the Substrate specificity entry is recorded as “has substrate specificity” and the “Relative Activity (%)” value turned out to be 100%.

With `O=C(O)CCCCCCCCCCCCCCCO` [HO2 C--(CH2)15 --OH, 16-hydroxy hexadecanoic acid], the “Relative Activity (%)” value in assay [2] is reported as 65.5%.

As for `[Cl-].[K+]` [KCl], the “Relative Activity (%)” value in assay [1] (reagent 100 mM) turned out to be 97.6%.

Turning to `[Cl-].[Cl-].[Mg+2]` [MgCl2], the “Relative Activity (%)” value in assay [1] (reagent 1 mM) is recorded as 98.2%.

`[Cl][Mn][Cl]` [MnCl2]: the “Relative Activity (%)” value in assay [1] (reagent 1 mM) was 102.4%.

Regarding `NC(=O)c1ccc[n+]([C@@H]2O[C@H](COP(=O)([O-])OP(=O)(O)OC[C@H]3O[C@@H](n4cnc5c(N)ncnc54)[C@H](OP(=O)(O)O)[C@@H]3O)[C@@H](O)[C@H]2O)c1` [NADP], the A340nm in assay [3] (0 min.) worked out at 0.046; in assay [3] (2 mins.) it was 0.047; in assay [3] (4 mins.), 0.045; in assay [3] (6 mins.), 0.046; in assay [3] (8 mins.), 0.046; in assay [3] (10 mins.) it was 0.047. For the same molecule, the Utilization of coenzyme result in assay [3] is listed as “No utilization”.

`NC(=O)c1ccc[n+]([C@@H]2O[C@H](COP(=O)([O-])OP(=O)(O)OC[C@H]3O[C@@H](n4cnc5c(N)ncnc54)[C@H](O)[C@@H]3O)[C@@H](O)[C@H]2O)c1` [NAD]: the A340nm in assay [3] (0 min.) came to 0.062; in assay [3] (2 mins.), 0.061; in assay [3] (4 mins.), 0.060; in assay [3] (6 mins.) it was 0.062; in assay [3] (8 mins.) it was 0.061; in assay [3] (10 mins.), 0.061. In addition, in assay [3], the Utilization of coenzyme result is on record as “No utilization”.

As to `Cl.N` [NH4 Cl], the “Relative Activity (%)” value in assay [1] (reagent 100 mM) is 89.0%.

For `[Cl-].[Na+]` [NaCl], in assay [1] (reagent 100 mM), the “Relative Activity (%)” value is 95.1%.

Regarding `OCC(O)CO` [glycerol], in assay [2], the Substrate specificity entry is given as “no specificity” and the “Relative Activity (%)” value is recorded as 0%.

Turning to Triton X-100, in assay [1] (reagent 1.0%), the “Relative Activity (%)” value is given as 93.1%.
